Values of other authors in patent publication US20180353175A1, “Surgical Fastener with Broad Spectrum MMP Inhibitors” (Ethicon LLC, priority 2017, published 2018).
Where two headings read alike, the source gives them in different places. Square brackets hold non-standard residues; d marks the D form. Peptide text beside a SMILES is read from it. * marks the point of attachment. 4Abz = Nc1ccc(C(=O)O)cc1; NHOH = ON*

Assays:
MMP1 = molecular target: T1, MMP1 (Homo sapiens, UniProt P03956)
T1 sequence (P03956 100-469): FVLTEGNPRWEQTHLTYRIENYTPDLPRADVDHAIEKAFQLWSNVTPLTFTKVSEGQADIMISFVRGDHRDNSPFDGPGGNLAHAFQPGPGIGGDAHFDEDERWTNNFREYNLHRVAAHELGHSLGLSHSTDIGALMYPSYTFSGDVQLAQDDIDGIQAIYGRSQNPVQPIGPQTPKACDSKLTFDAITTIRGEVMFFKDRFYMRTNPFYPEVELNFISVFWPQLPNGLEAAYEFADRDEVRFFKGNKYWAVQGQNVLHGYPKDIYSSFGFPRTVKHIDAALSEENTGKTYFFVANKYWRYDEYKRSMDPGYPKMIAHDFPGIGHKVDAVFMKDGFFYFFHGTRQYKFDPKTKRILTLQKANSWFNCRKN

MMP3 = MMP3 (Homo sapiens, UniProt P08254)
MMP9 = MMP9 (Homo sapiens, UniProt P14780); settings: for IC50: read-out: IC50 MMP9
MMP7 = molecular target: T2, MMP7 (Homo sapiens, UniProt P09237); settings: for IC50: read-out: IC50 MMP7
T2 sequence (P09237 95-267): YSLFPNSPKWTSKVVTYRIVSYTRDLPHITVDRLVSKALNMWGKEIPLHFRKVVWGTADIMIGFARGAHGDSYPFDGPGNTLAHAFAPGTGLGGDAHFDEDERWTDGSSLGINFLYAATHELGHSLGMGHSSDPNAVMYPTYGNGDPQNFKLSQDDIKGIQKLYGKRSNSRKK

MMP2 = molecular target: T3, MMP2 (Homo sapiens, UniProt P08253); settings: for IC50: read-out: IC50 MMP2
T3 sequence (P08253 110-660): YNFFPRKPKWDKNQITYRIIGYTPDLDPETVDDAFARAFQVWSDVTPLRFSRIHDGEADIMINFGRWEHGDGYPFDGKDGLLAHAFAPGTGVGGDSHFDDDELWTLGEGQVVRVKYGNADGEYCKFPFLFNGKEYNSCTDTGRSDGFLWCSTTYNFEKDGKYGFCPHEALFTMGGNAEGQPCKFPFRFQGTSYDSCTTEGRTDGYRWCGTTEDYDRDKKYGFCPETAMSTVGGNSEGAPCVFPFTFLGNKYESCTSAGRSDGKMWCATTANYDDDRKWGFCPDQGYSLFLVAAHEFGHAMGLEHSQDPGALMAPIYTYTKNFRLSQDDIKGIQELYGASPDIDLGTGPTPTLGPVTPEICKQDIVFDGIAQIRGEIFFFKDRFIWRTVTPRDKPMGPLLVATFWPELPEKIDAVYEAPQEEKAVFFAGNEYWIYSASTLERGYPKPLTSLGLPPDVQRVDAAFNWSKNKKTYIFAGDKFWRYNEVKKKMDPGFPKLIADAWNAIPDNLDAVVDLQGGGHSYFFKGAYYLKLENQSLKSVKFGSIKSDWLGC

MMP14 = MMP14 (Homo sapiens, UniProt P50281)
MMP12 = MMP12 (Homo sapiens, UniProt P39900)
MMP13 = MMP13 (Homo sapiens, UniProt P45452)
MMP8 = MMP8 (Homo sapiens, UniProt P22894)
[1] = molecular target: TACE (TNF-α-converting enzyme) (Homo sapiens, UniProt P78536)
[2] = read-out: IC50 MMP8 (converted)

Chain of MMP8 (P22894 101-467, species assumed): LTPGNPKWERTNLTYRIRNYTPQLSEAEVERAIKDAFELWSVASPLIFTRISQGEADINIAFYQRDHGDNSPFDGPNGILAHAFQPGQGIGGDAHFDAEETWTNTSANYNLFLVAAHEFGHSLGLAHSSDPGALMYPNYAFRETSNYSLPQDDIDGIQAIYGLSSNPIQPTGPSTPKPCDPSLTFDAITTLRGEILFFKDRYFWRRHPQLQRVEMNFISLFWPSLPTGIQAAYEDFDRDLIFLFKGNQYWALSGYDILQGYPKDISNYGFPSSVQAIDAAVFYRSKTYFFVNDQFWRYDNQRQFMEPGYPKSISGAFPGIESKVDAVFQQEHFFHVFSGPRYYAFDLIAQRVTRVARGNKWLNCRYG
Chain of MMP9 (P14780 94-707, species assumed): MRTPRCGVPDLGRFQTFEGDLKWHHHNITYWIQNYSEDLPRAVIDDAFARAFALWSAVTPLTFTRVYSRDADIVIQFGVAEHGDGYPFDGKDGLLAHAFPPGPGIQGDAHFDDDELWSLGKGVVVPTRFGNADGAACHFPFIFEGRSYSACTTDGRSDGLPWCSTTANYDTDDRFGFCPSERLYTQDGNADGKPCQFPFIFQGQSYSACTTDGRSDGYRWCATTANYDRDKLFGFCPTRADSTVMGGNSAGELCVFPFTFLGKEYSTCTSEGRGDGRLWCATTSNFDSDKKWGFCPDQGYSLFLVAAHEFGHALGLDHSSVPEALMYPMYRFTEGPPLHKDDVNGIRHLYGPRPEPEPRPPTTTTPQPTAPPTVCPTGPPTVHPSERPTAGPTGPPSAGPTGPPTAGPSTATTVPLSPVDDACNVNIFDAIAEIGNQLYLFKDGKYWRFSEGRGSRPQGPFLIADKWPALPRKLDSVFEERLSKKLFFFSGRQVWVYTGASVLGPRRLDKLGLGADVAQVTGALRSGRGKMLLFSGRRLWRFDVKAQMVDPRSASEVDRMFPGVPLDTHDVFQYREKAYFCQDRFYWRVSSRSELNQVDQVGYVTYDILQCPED
Chain of MMP3 (P08254 100-477, species assumed): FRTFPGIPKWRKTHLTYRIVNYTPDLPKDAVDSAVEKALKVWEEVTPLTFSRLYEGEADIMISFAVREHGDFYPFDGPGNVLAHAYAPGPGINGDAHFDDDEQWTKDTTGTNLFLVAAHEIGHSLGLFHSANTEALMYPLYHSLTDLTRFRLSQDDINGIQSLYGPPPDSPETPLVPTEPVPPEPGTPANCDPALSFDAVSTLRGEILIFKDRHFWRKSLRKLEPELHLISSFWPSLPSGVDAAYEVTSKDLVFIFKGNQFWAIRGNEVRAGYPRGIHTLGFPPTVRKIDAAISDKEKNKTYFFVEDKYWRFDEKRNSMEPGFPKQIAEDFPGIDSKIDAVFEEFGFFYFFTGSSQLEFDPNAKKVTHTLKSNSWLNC
Chain of MMP12 (P39900 106-470, species assumed): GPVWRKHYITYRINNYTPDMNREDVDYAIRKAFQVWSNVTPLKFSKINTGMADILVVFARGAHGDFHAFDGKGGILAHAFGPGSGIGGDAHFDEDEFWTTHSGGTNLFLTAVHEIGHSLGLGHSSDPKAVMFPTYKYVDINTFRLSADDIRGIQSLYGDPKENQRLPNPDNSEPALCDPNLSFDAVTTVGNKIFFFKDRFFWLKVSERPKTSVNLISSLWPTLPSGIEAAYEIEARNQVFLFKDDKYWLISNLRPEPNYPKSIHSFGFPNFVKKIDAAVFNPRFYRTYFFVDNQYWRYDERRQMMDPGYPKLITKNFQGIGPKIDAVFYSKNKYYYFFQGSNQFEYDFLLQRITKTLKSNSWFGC
Chain of TACE (TNF-α-converting enzyme) (P78536 215-824, species assumed): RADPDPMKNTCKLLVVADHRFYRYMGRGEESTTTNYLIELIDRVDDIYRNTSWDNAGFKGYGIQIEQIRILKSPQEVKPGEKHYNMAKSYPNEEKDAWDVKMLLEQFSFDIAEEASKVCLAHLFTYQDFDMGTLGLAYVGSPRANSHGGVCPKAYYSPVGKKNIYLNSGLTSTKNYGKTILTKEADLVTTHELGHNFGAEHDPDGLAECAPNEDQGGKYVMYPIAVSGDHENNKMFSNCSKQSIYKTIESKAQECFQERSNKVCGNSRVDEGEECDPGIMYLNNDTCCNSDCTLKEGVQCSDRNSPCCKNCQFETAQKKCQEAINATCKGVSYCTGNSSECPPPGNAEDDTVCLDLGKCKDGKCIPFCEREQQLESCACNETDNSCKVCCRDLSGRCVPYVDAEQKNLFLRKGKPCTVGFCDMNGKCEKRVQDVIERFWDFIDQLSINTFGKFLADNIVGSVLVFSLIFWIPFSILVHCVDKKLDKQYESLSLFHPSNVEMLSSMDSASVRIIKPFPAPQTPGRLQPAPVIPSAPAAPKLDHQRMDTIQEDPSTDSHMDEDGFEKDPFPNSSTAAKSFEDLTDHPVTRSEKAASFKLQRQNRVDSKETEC

Q: For “7-dimethylamino-6-dimethyl-6-deoxytetracycline [Minocycline]”, which “inhibition of MMP1 (in words)” value (MMP1) is on record?
A: effective for the inhibition

Q: And the IC50 (MMP3)?
A: 290000 nM

Q: What about the IC50 (MMP9) of the same molecule?
A: 180000 nM

Q: And the IC50 (MMP7)?
A: 125000 nM

Q: What about the “inhibition of MMP2 (in words)” value (MMP2) of the same molecule?
A: effective for the inhibition

Q: Which “inhibition of MMP1 (in words)” value (MMP1) does the source give for `O=C(NO)C1(S(=O)(=O)c2ccc(Oc3ccc(Cl)cc3)cc2)CCN(Cc2ccccc2)CC1` [239796-97-5] here?
A: suppress

Q: What does the source list for `CC1(C)NC(=O)N(C[C@@H](COc2ccc(-c3ccc(OC(F)(F)F)cc3)cc2)N(O)C=O)C1=O` [ABT-770]?
A: inhibition of MMP9 (in words) (MMP9): inhibits; inhibition of MMP2 (in words) (MMP2): inhibits

Q: Which results are given for `C=CCN(C(=O)CCC(=O)N(O)CC(C)C)C(Cc1ccccc1)C(=O)NC` (stereo not drawn) [BB-1101]?
A: IC50 (MMP14): 10 nM; IC50 (MMP12): 5 nM; IC50 (MMP1): 8 nM; IC50 (MMP13): 7 nM; IC50 (MMP8; [2]): 3 nM; IC50 (MMP3): 30 nM; IC50 (MMP9): 3 nM; IC50 (MMP7): 60 nM; IC50 (MMP2): 4 nM

Q: For `CNC(=O)[C@H](Cc1ccccc1)NC(=O)[C@H](CC(C)C)[C@H](CSc1cccs1)C(=O)NO` [Batimastat], which IC50 (MMP9) is on record?
A: 1 nM

Q: What about the IC50 (MMP7) of the same molecule?
A: 6 nM

Q: Which IC50 (MMP1) does the source give for `NC(=O)C1=C(O)CC2CC3Cc4cccc(O)c4C(=O)C3=C(O)C2(O)C1=O` (stereo not drawn) [COL-3] here?
A: 91600 nM

Q: What about the IC50 (MMP13) of the same molecule?
A: 808 nM

Q: And the IC50 (MMP8; [2])?
A: 129000 nM

Q: For `CN1C(=O)N(C[C@H](C(=O)NO)[C@@H](CC2CCCC2)C(=O)N2CCCCC2)C(=O)C1(C)C` [Cipemastat], which “inhibition of MMP1 (in words)” value (MMP1) is on record?
A: can inhibit

Q: And the “inhibition of MMP3 (in words)” value (MMP3)?
A: can inhibit

Q: And the “inhibition of MMP9 (in words)” value (MMP9)?
A: can inhibit

Q: Which IC50 (MMP1) does the source give for `C[C@H]1c2cccc(O)c2C(=O)C2=C(O)[C@]3(O)C(=O)C(C(N)=O)=C(O)[C@@H](N(C)C)[C@@H]3[C@@H](O)[C@@H]21` [Doxycycline] here?
A: > 400000 nM

Q: What about the IC50 (MMP13) of the same molecule?
A: 2000 to 50000 nM

Q: What about the IC50 (MMP8; [2]) of the same molecule?
A: 26000 to 50000 nM

Q: And the IC50 (MMP3)?
A: 32000 nM

Q: And the IC50 (MMP7)?
A: 28000 nM

Q: What about the IC50 (MMP2) of the same molecule?
A: 56000 nM

Q: For `CC(C)C[C@@H](NC(=O)[C@@H]1CCCN1C(=O)CNC(=O)c1ccc(N)cc1)C(=O)N[C@H](C)C(=O)NO` [FN-439, p-aminobenzoyl-Gly-Pro-D-Leu-D-Ala-NHOH] (H-[4Abz]GP[dL][dA]-{NHOH}), which IC50 (MMP1) is on record?
A: 1000 nM

Q: And the IC50 (MMP8; [2])?
A: 1000 nM

Q: What about the IC50 (MMP3) of the same molecule?
A: 150000 nM

Q: What about the IC50 (MMP9) of the same molecule?
A: 30000 nM

Q: For `COc1ccc(S(=O)(=O)N(Cc2cccnc2)[C@@H](C(=O)NO)C(C)C)cc1.Cl` [MMI-270], which “inhibition of MMP8 (in words)” value (MMP8) is on record?
A: can inhibit

Q: And the “inhibition of MMP9 (in words)” value (MMP9)?
A: can inhibit

Q: What about the “inhibition of MMP2 (in words)” value (MMP2) of the same molecule?
A: can inhibit

Q: For `CCN(CC)Cc1cc(C)c(N(Cc2ccccc2)S(=O)(=O)c2ccc(OC)cc2)c(C(=O)NO)c1` [MMP9 inhibitor I], which IC50 (MMP1) is on record?
A: 1.05 nM

Q: Which IC50 (MMP14) does the source give for `CNC(=O)[C@@H](NC(=O)[C@H](CC(C)C)[C@H](O)C(=O)NO)C(C)(C)C` [Marimastat] here?
A: 1.8 nM

Q: With `CCOCOCC(CC(C)C(=O)NO)NC(=O)c1ccc(Oc2ccccc2)cc1` (stereo not drawn) [ONO-4817] as the molecule, how does the Ki (MMP12) read?
A: 0.45 nM

Q: What about the IC50 (MMP1) of the same molecule?
A: 1.6 nM

Q: And the Ki (MMP13)?
A: 1.1 nM

Q: What about the Ki (MMP8) of the same molecule?
A: 1.1 nM

Q: And the Ki (MMP3)?
A: 42 nM

Q: What about the IC50 (MMP9) of the same molecule?
A: 2.1 nM

Q: And the Ki (MMP7)?
A: 2.5 nM

Q: What about the Ki (MMP2) of the same molecule?
A: 0.73 nM

Q: What does the source list for `CC1(C)SCCN(S(=O)(=O)c2ccc(Oc3ccncc3)cc2)[C@H]1C(=O)NO` [Prinomastat]?
A: inhibition of MMP14 (in words) (MMP14): specific selectivity; inhibition of MMP3 (in words) (MMP3): specific selectivity; inhibition of MMP9 (in words) (MMP9): specific selectivity

Q: For `O=C(NO)C1(CS(=O)(=O)c2ccc(Oc3ccc(Cl)cc3)cc2)CCOCC1` [RS 130830], which “inhibition of MMP1 (in words)” value (MMP1) is on record?
A: suppress

Q: With `O=C1NC(=O)C(c2ccc(-c3ccccc3)cc2)(N2CCN(c3ccc([N+](=O)[O-])cc3)CC2)C(=O)N1` [Ro 28-2653] as the molecule, how does the IC50 (MMP8; read-out: IC50 MMP8) read?
A: 15 nM

Q: And the IC50 (MMP9)?
A: 12 to 23 nM

Q: And the IC50 (MMP2)?
A: 7 to 246 nM

Q: With “TIMP-1: endogenous tissue inhibitor of metalloproteinases; extensively glycosylated protein with a molecular mass of 28.5 kDa” as the molecule, how does the “inhibition of MMPs in general (in words)” value (MMPs) read?
A: inhibit most MMPs (except MMP-2 and -14)

Q: And the “inhibition of MMP8 (in words)” value (MMP8)?
A: preferentially inhibits

B1: TIMP-3: endogenous tissue inhibitor of metalloproteinases, typically bound to the ECM (protein, UniProt P35625 24-211, looked up)
Metalloproteinase inhibitor 3: CTCSPSHPQDAFCNSDIVIRAKVVGKKLVKEGPFGTLVYTIKQMKMYRGFTKMPHVQYIHTEASESLCGLKLEVNKYQYLLTGRVYDGKMYTGLCNFVERWDQLTLSQRKGLNYRYHLGCNCKIKSCYYLPCFVTSKNECLWTDMLSNFGYPGYQSKHYACIRQKGGYCSWYRGWAPPDKSIINATDP
Q: For B1, which “inhibition of MMP1 (in words)” value (MMP1) is on record?
A: inhibits the activity

Q: What about the “inhibition of TACE (in words)” value [1] of the same molecule?
A: normally inhibits

Q: What about the “inhibition of MMP13 (in words)” value (MMP13) of the same molecule?
A: inhibits the activity

Q: What about the “inhibition of MMP3 (in words)” value (MMP3) of the same molecule?
A: inhibits the activity

Q: And the “inhibition of MMP9 (in words)” value (MMP9)?
A: inhibits the activity

Q: What about the “inhibition of MMP2 (in words)” value (MMP2) of the same molecule?
A: inhibits the activity

B2: TIMP-4: endogenous tissue inhibitor of metalloproteinases, secreted predominantly in heart and brain tissue (protein, UniProt Q99727 30-224, looked up)
Metalloproteinase inhibitor 4: CSCAPAHPQQHICHSALVIRAKISSEKVVPASADPADTEKMLRYEIKQIKMFKGFEKVKDVQYIYTPFDSSLCGVKLEANSQKQYLLTGQVLSDGKVFIHLCNYIEPWEDLSLVQRESLNHHYHLNCGCQITTCYTVPCTISAPNECLWTDWLLERKLYGYQAQHYVCMKHVDGTCSWYRGHLPLRKEFVDIVQP
Q: For B2, which “inhibition of MMPs in general (in words)” value (MMPs) is on record?
A: inhibits all known MMPs

Q: What about the “inhibition of MMP7 (in words)” value (MMP7) of the same molecule?
A: preferentially inhibits

Q: What about the “inhibition of MMP2 (in words)” value (MMP2) of the same molecule?
A: preferentially inhibits
